Reference: PubChem BioAssay (NCI)
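Values below derive from 48-hour exposures of cells grown in 96-well plates, with endpoints linearly interpolated between the two concentrations bracketing the appropriate inhibition level. GI50 = concentration required for 50% inhibition of growth. TGI is the concentration that stops growth completely.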

How the values were obtained:
Test in all cases: NCI anticancer screen, dose series, 48 h
[1] = test system: SNB-19 CNS
[2] = test system: MCF7 breast
[3] = test system: SNB-75 CNS
[4] = test system: HCT-116 colon
[5] = test system: A498 renal
[6] = test system: OVCAR-3 ovarian
[7] = test system: EKVX NSCLC
[8] = test system: A549 NSCLC
[9] = test system: DMS 114 small cell lung
[10] = test system: KM20L2 colon

SMILES	TGI [1] [µM]	TGI [2] [µM]	TGI [3] [µM]	TGI [4] [µM]	TGI [5] [µM]	TGI [6] [µM]	TGI [7] [µM]	TGI [8] [µM]	GI50 [1] [µM]	GI50 [3] [µM]	GI50 [4] [µM]	GI50 [5] [µM]	GI50 [6] [µM]	TGI [9] [µM]	TGI [10] [µM]	GI50 [2] [µM]	GI50 [7] [µM]	GI50 [8] [µM]
CSc1ccc(/C=C/c2ccnc3ccccc23)cc1	34	28.6	44.6	22.3	29.2	25.9	22.3	25										
O=C1c2c(O)cc(O)cc2OC(c2ccc(O)cc2O)C1O (stereo unspecified)	> 100	> 100	> 100	> 100	> 100	> 100	> 100	> 100	> 100	> 100	> 100	> 100	> 100					
Cn1c(=S)c2[nH]c(SCCN3CCCC3)nc2n(C)c1=O	> 100	> 100	> 100	> 100	> 100	> 100	> 100	> 100										
CNC1C(O)C(OC2C(N)CC(N)C(OC3OC(C(C)O)C(O)C(O)C3N)C2O)OCC1(C)O (stereo unspecified)	> 100	> 100	> 100	> 100	> 100	> 100	> 100	> 100										
COc1ccc(/C(=N/NC(N)=O)C(c2ccc(OC)cc2)C2C(=O)Oc3ccccc32)cc1 (stereo unspecified)	> 100		> 100	> 100		> 100		> 100						> 100	> 100			
CC(=O)OC1CC2C(C)(C)C(=O)C=CC2(C)C2CCC3(C)C(c4ccoc4)OC(=O)C4OC43C12C (stereo unspecified)	> 100	29.5	> 100	11.3	> 100	> 100	> 100	86.9										
Cc1nc2n(c(=O)c1CCN1CCC(c3noc4cc(F)ccc34)CC1)CCCC2	> 50	> 50	> 50	> 50	> 50	> 50	> 50	> 50	> 50	> 50	> 50	> 50	> 50			> 50	> 50	> 50
CC(C)(C)C(=O)O[C@@H]1COC2C(O)COC21 (stereo partly specified)	> 100		> 100	> 100		> 100		> 100						> 100				
Nc1nnc(Cn2c(-c3ccccc3)nc3ccc(Br)cc3c2=O)s1	> 100	> 100	> 100	50.3	74	> 100	> 100	> 100	> 100	> 100	13.6	15.1	40			> 100	> 100	25
O=C1CCc2c(sc3[nH]c(=S)n(Cc4ccccc4)c(=O)c23)C1	> 100	12.4	> 100	> 100	> 100	> 100	> 100	> 100	3.93	2.34	3.38	3.44	3.72			3.26	3.58	3.29
